Source: patent US7148405B2, “Enzymes responsible for the metabolism of cis-zeatin” (State of Oregon Acting by and through the State Board of …, priority 2000, dated 2006)

Assays:
[1] = biological target: T1, cis-zeatin O-glucosyltransferase (cis-ZOG1) (Zea mays, UniProt Q93XP7); assay: Enzyme assay of recombinant cis-ZOG1 with cytokinin substrates and UDPG, products analysed by HPLC; assay type: biochemical; details: recombinant protein, UDPG as glycosyl donor, HPLC analysis
T1 construct: His7 (seven histidine residues, from the vector); made in house; host or cells: E. coli XL1 Blue
T1 sequence (Q93XP7 1-467): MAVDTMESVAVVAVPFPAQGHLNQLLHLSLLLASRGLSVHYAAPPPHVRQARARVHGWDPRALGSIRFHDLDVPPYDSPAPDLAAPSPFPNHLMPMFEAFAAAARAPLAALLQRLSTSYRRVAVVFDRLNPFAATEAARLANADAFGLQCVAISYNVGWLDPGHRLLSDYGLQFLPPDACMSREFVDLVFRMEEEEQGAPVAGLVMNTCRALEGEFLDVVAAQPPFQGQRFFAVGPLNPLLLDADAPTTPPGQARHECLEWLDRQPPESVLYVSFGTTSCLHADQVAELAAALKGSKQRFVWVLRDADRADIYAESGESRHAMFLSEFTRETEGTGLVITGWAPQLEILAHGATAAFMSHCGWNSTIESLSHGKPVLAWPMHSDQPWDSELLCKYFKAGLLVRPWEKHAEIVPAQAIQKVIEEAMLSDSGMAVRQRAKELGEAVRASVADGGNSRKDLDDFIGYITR
Description: (§1) For FIG. 2B, 200 μL of supernatant obtained from cell culture was incubated with approximately 1 nmol of labeled zeatin and UDPG for 2 hours. For FIG. 2C, Approximately 0.4 nmole of reaction product obtained from reactions similar to FIG. 2B was incubated with β-glucosidase for 4 hours to reconvert the product to zeatin.
3. Isolation of Recombinant Proteins. To obtain recombinant proteins, the ORF of the selected cDNA was amplified by PCR using primers (SEQ ID NOS: 9 and 10) that generated products having an NcoI site at the 5′ and a XbaI site at the 3′ terminus. The PCR products were digested with NcoI and XbaI restriction enzymes and ligated into a p Trc 99A expression vector (Pharmacia) modified to contain seven histidine residues (CAT or CAC), and transformed into the XL1 Blue cell line. Colonies were selected on AMP-LB plates. […] After 4 hours cells were collected and frozen at −80 C overnight. Cells were resuspended in 0.5 mL of 0.2 M Tris pH 7.5 containing 1 mg/mL of lysozyme. Samples were incubated on ice for 30 minutes, frozen for 10 minutes at −80 C, thawed in cold water, and then DNAase (1 μg/10 μl supernatant) was added. After 10 minutes at room temperature, the samples were sonicated with four 15-second bursts to release proteins from cells. Soluble proteins were collected after centrifugation and used for enzyme assays.
4. Enzyme assays and analysis of reaction products. Enzyme activity was determined as reported previously (Dixon et al., Plant Physiol. 90:1316–1321, 1989). Briefly, a specified amount of recombinant protein, ^14C-labeled cis-zeatin (specific activity of 24 mCi/mmol), and a glycosyl donor (4 mM of UDPG) were incubated in MgCl2 (0.07 M) in 0.17 M Tris, pH 8.0. Reaction products were then analyzed by HPLC (Dixon et al., Plant Physiol. 90:1316–1321, 1989).

β-glucosidase = details: reaction product incubated with β-glucosidase for 4 hours
Description: as §1

| Molecule | use as substrate by the recombinant enzyme (O-glucosylation) [1] | re-conversion to cis-zeatin by β-glucosidase (β-glucosidase) |
| --- | --- | --- |
| C/C(=C\CNc1ncnc2c1ncn2[C@@H]1O[C@H](CO)[C@@H](O)[C@H]1O)CO (relative stereo) [trans-ribosylzeatin] | does not use |  |
| C/C(=C/CNc1ncnc2nc[nH]c12)CO [cis-zeatin] | formation of O-glucosyl-cis-zeatin from cis-zeatin |  |
| CC(CO)CCNc1ncnc2nc[nH]c12 (stereo not drawn) [dihydrozeatin] | does not use |  |
| CC(CO)CCNc1ncnc2c1ncn2[C@@H]1O[C@H](CO)[C@@H](O)[C@H]1O (stereo partly drawn) [ribosyldihydrozeatin] | does not use |  |
| C/C(=C\CNc1ncnc2[nH]cnc12)CO [trans-zeatin] | does not use |  |
| cis-zeatin O-glucoside |  | re-conversion of the reaction product to cis-zeatin by β-glucosidase |
